# Results from ChEMBL document CHEMBL3885881, “DrugMatrix”.
# Species on record: Rattus norvegicus
# Test: DrugMatrix - Regimen: Daily Repeat
# Type: toxicity, organism-based, Sprague-Dawley
# Design: regimen Daily Repeat, gender Male, age 6-8 weeks
# Settings: in vivo, po, route oral GAVAGE, […]; for ABSOLUTE BASOPHIL / ABSOLUTE EOSINOPHIL / ABSOLUTE LYMPHOCYTE / ABSOLUTE MONOCYTE / ABSOLUTE SEGMENTED NEUTROPHIL / BASOPHIL / EOSINOPHIL / ERYTHROCYTE COUNT / HEMATOCRIT / HEMOGLOBIN / LEUKOCYTE COUNT / LYMPHOCYTE / MEAN CORPUSCULAR HEMOGLOBIN / MEAN CORPUSCULAR HEMOGLOBIN CONCENTRATION / MEAN CORPUSCULAR VOLUME / MONOCYTE / NEUTROPHIL / NUCLEATED RED BLOOD CELLS / PLATELET COUNT: tissue Blood; for ALANINE AMINOTRANSFERASE / ALBUMIN / ALKALINE PHOSPHATASE / ASPARTATE AMINOTRANSFERASE / BLOOD UREA NITROGEN / CARBON DIOXIDE / CHLORIDE / CHOLESTEROL / CREATINE PHOSPHOKINASE / CREATININE / GLUCOSE / LACTATE DEHYDROGENASE / LIPASE / PHOSPHORUS / POTASSIUM / SODIUM / TOTAL BILIRUBIN / TOTAL PROTEIN / URIC ACID: tissue Plasma
# [1] = 0 mg/kg, 72 h, dose level Control, time 3 day
# [2] = 0 mg/kg, 120 h, dose level Control, time 5 day
# [3] = 13 mg/kg, 72 h, dose level Low, time 3 day
smiles,measurement,setting,value
CN(C)c1nc(N(C)C)nc(N(C)C)n1 [ALTRETAMINE],ABSOLUTE BASOPHIL,[1],0 CELLS/uL
same,ABSOLUTE EOSINOPHIL,[1],70.67 CELLS/uL
same,ABSOLUTE LYMPHOCYTE,[1],12761.5 CELLS/uL
same,ABSOLUTE MONOCYTE,[1],214.17 CELLS/uL
same,ABSOLUTE SEGMENTED NEUTROPHIL,[1],987 CELLS/uL
same,BASOPHIL,[1],0%
same,EOSINOPHIL,[1],0.5%
same,ERYTHROCYTE COUNT,[1],5.61 x10E6/uL
same,HEMATOCRIT,[1],35.22%
same,HEMOGLOBIN,[1],13.57 G/DL
same,LEUKOCYTE COUNT,[1],14.03 x10E3/uL
same,LYMPHOCYTE,[1],91%
same,MEAN CORPUSCULAR HEMOGLOBIN,[1],24.25 pg
same,MEAN CORPUSCULAR HEMOGLOBIN CONCENTRATION,[1],38.52 G/DL
same,MEAN CORPUSCULAR VOLUME,[1],62.9 fL
same,MONOCYTE,[1],1.5%
same,NEUTROPHIL,[1],7%
same,NUCLEATED RED BLOOD CELLS,[1],0 /100WBC
same,PLATELET COUNT,[1],997.5 x10E3/uL
same,ALANINE AMINOTRANSFERASE,[1],66.5 u/L
same,ALBUMIN,[1],3.98 G/DL
same,ALKALINE PHOSPHATASE,[1],350 u/L
same,ASPARTATE AMINOTRANSFERASE,[1],83.83 u/L
same,BLOOD UREA NITROGEN,[1],12.33 mg/dL
same,CARBON DIOXIDE,[1],30.33 mmol/L
same,CHLORIDE,[1],100 MEQ/L
same,CHOLESTEROL,[1],75 mg/dL
same,CREATINE PHOSPHOKINASE,[1],200 u/L
same,CREATININE,[1],0.17 mg/dL
same,GLUCOSE,[1],170 mg/dL
same,LACTATE DEHYDROGENASE,[1],89.33 u/L
same,LIPASE,[1],10.33 u/L
same,PHOSPHORUS,[1],10.88 mg/dL
same,POTASSIUM,[1],6.13 MEQ/L
same,SODIUM,[1],140.53 MEQ/L
same,TOTAL BILIRUBIN,[1],0.2 mg/dL
same,TOTAL PROTEIN,[1],5.67 G/DL
same,URIC ACID,[1],1.6 mg/dL
same,ABSOLUTE BASOPHIL,[2],0 CELLS/uL
same,ABSOLUTE EOSINOPHIL,[2],0 CELLS/uL
same,ABSOLUTE LYMPHOCYTE,[2],9526.67 CELLS/uL
same,ABSOLUTE MONOCYTE,[2],134.17 CELLS/uL
same,ABSOLUTE SEGMENTED NEUTROPHIL,[2],922.5 CELLS/uL
same,BASOPHIL,[2],0%
same,EOSINOPHIL,[2],0%
same,ERYTHROCYTE COUNT,[2],5.58 x10E6/uL
same,HEMATOCRIT,[2],34.78%
same,HEMOGLOBIN,[2],13.5 G/DL
same,LEUKOCYTE COUNT,[2],10.58 x10E3/uL
same,LYMPHOCYTE,[2],90.17%
same,MEAN CORPUSCULAR HEMOGLOBIN,[2],24.27 pg
same,MEAN CORPUSCULAR HEMOGLOBIN CONCENTRATION,[2],38.82 G/DL
same,MEAN CORPUSCULAR VOLUME,[2],62.48 fL
same,MONOCYTE,[2],1.17%
same,NEUTROPHIL,[2],8.67%
same,NUCLEATED RED BLOOD CELLS,[2],0.17 /100WBC
same,PLATELET COUNT,[2],807.17 x10E3/uL
same,ALANINE AMINOTRANSFERASE,[2],66.83 u/L
same,ALBUMIN,[2],3.73 G/DL
same,ALKALINE PHOSPHATASE,[2],286.17 u/L
same,ASPARTATE AMINOTRANSFERASE,[2],142.33 u/L
same,BLOOD UREA NITROGEN,[2],14.67 mg/dL
same,CARBON DIOXIDE,[2],25.5 mmol/L
same,CHLORIDE,[2],89.17 MEQ/L
same,CHOLESTEROL,[2],75.17 mg/dL
same,CREATINE PHOSPHOKINASE,[2],310.67 u/L
same,CREATININE,[2],0.2 mg/dL
same,GLUCOSE,[2],153 mg/dL
same,LACTATE DEHYDROGENASE,[2],1594 u/L
same,LIPASE,[2],14.83 u/L
same,PHOSPHORUS,[2],11.28 mg/dL
same,POTASSIUM,[2],8.46 MEQ/L
same,SODIUM,[2],126.88 MEQ/L
same,TOTAL BILIRUBIN,[2],0.37 mg/dL
same,TOTAL PROTEIN,[2],5.53 G/DL
same,URIC ACID,[2],1.52 mg/dL
same,ABSOLUTE BASOPHIL,[3],0 CELLS/uL
same,ABSOLUTE EOSINOPHIL,[3],45.67 CELLS/uL
same,ABSOLUTE LYMPHOCYTE,[3],11954 CELLS/uL
same,ABSOLUTE MONOCYTE,[3],232.67 CELLS/uL
same,ABSOLUTE SEGMENTED NEUTROPHIL,[3],1567.67 CELLS/uL
same,BASOPHIL,[3],0%
same,EOSINOPHIL,[3],0.33%
same,ERYTHROCYTE COUNT,[3],5.86 x10E6/uL
same,HEMATOCRIT,[3],37.47%
same,HEMOGLOBIN,[3],14.6 G/DL
same,LEUKOCYTE COUNT,[3],13.8 x10E3/uL
same,LYMPHOCYTE,[3],86.67%
same,MEAN CORPUSCULAR HEMOGLOBIN,[3],24.97 pg
same,MEAN CORPUSCULAR HEMOGLOBIN CONCENTRATION,[3],38.97 G/DL
same,MEAN CORPUSCULAR VOLUME,[3],64 fL
same,MONOCYTE,[3],1.67%
same,NEUTROPHIL,[3],11.33%
same,NUCLEATED RED BLOOD CELLS,[3],0 /100WBC
same,PLATELET COUNT,[3],1022.33 x10E3/uL
same,ALANINE AMINOTRANSFERASE,[3],99.33 u/L
same,ALBUMIN,[3],4.03 G/DL
same,ALKALINE PHOSPHATASE,[3],392.33 u/L
same,ASPARTATE AMINOTRANSFERASE,[3],89.67 u/L
same,BLOOD UREA NITROGEN,[3],12.33 mg/dL
same,CARBON DIOXIDE,[3],29 mmol/L
same,CHLORIDE,[3],99 MEQ/L
same,CHOLESTEROL,[3],87.33 mg/dL
same,CREATINE PHOSPHOKINASE,[3],288 u/L
same,CREATININE,[3],0.18 mg/dL
same,GLUCOSE,[3],161 mg/dL
same,LACTATE DEHYDROGENASE,[3],193 u/L
same,LIPASE,[3],10.67 u/L
same,PHOSPHORUS,[3],11.53 mg/dL
same,POTASSIUM,[3],6.64 MEQ/L
same,SODIUM,[3],140.43 MEQ/L
same,TOTAL BILIRUBIN,[3],0.23 mg/dL
same,TOTAL PROTEIN,[3],5.83 G/DL
same,URIC ACID,[3],1.97 mg/dL
